# Like-named read-outs stand apart in the source and are kept apart here.
# Key:
# [1] = system: Cryptolestes sp.; experiment: LD 50 / LD 99 of allyl acetate to adults, probit analysis (Example 2); type: in vivo; conditions: 24-hour exposure at 26 ± 2° C.
# Procedure: (§1) Assays with allyl acetate against the adults of four species of stored grain insects namely S. oryzae, R. dominica, T. castaneum and Cryptolestes sp. were carried out to determine LD 50 and LD 99 doses. […] Cryptolestes sp. was reared on wheat feed. […] The insects were exposed to different doses of allyl acetate for 24 hour in 0.85-liter desiccators to yield 20-100% mortality. There were 6 replicates for each dose along with equal number of untreated control. […] Mortality of treated insects was assessed at the end of 14 days and it was corrected for natural control mortality. The data for the individual species were subjected to probit analysis following the method of Finney (1971) to arrive at LD 50 and LD 99 values.
# [2] = system: Tribolium castaneum; experiment: as above; type: in vivo; conditions: T. castaneum adults, 24-hour exposure at 26 ± 2° C.
# Procedure: as §1
# [3] = system: S. oryzae mixed-age cultures; experiment: Fumigation in 125 litre plastic drums with 100 kg wheat, with/without perforated tubing (Example 6); type: in vivo, Sitophilus oryzae; conditions: for Insect Survivors / mortality at 200 µg/mL: S. oryzae, 200 mg/liter, 72 hours, 26 ± 2° C., 125 liter drum, 100 kg wheat; for mortality at 200 µg/mL: 72 h, read-out: % mortality based on survivors in untreated controls
# Procedure: (§2) In another set of experiments, fumigations were carried out in the plastic drums with 100 kg […] acetate (27 ml of liquid) was dispensed at one location, that is, on the top layer of the grain. In both sets of experiments, there were 3 replicates for control and fumigated batches.
# (§3) Insect mortality in fumigated batches was determined by taking into consideration of survivors in respective controls as 100%.
# [4] = system: R. dominica mixed-age cultures; experiment: as above; type: in vivo, Rhyzopertha dominica; conditions: for Insect Survivors / mortality at 200 µg/mL: R. dominica, 200 mg/liter, 72 hours, 26 ± 2° C., 125 liter drum, 100 kg wheat; for mortality at 200 µg/mL: 72 h, read-out: % mortality based on survivors in untreated controls
# Procedure: as §2, §3
# [5] = system: T. castaneum mixed-age cultures; experiment: as above; type: in vivo, Tribolium castaneum; conditions: without perforated tubing, 200 mg/liter, 26 ± 2° C., 125 liter drum; for mortality at 200 µg/mL: Tribolium castaneum, 72 h, read-out: % mortality based on survivors in untreated controls; for Insect Survivors: 72 hours
# Procedure: In another set of experiments, fumigations were carried out in the plastic drums with 100 kg of wheat under similar conditions mentioned above except that there was no perforated tubing inserted into the grain and the total dose of allyl acetate (27 ml of liquid) was dispensed at one location, that is, on the top layer of the grain. In both sets of experiments, there were 3 replicates for control and fumigated batches.
# as §3
# [6] = system: T. castaneum mixed-age cultures; experiment: as above; type: in vivo, Tribolium castaneum; conditions: for Insect Survivors / mortality at 200 µg/mL: T. castaneum, with perforated tubing, 200 mg/liter, 72 hours, 26 ± 2° C., 125 liter drum, 100 kg wheat; for mortality at 200 µg/mL: 72 h, read-out: % mortality based on survivors in untreated controls
# [7] = system: rat; conditions: 1 hr; cited from earlier work
# [8] = cited from earlier work
# [9] = system: S. oryzae mixed-age cultures; conditions: 72 hours at 26±2° C., 19.5 liter tin container with 12 kg wheat
# Description: (§4) Fumigation experiments with allyl acetate have been conducted in 19.5 litre capacity tin containers with mixed- age cultures of R. dominica, S. oryzae and T. castaneum as the test insects.
# (§5) Mixed-age cultures of S. oryzae and R. dominica were obtained by allowing 300 adults of the individual species to breed in about 1 kg of wheat in a 2-liter glass jar. To obtain mixed- age culture of T. castaneum about 300 adults were released into 1 kg of whole-wheat flour plus 5% dried yeast in a 2-litre glass jar. The insect culture jars were kept under the rearing temperature conditions i.e., 25±1° C. for S. oryzae and T. castaneum and 30±1° C. for R. dominica.
# (§6) The infested grain/flour after an incubation period of 7 weeks was used for the experiment. The cultures were weighed into 50 gm aliquots in 21 cm×14 cm size cloth bags. One set of three test insect bags comprising R. dominica, S. oryzae and T. castaneum were kept at the bottom of the container before filling the grain.
# (§7) Another set of three-test insect bags was kept on the top layer of grains. The grain-filled containers were, then, fumigated with allyl acetate for 72 hours at 26±2° C. There were 6 doses ranging from 100 to 800 mg/litre with 3 replicates/dosage along with untreated controls. Required quantity of allyl acetate was measured in 10 and 25 ml measuring cylinder and quickly poured on to 5 gm of absorbent cotton wool kept over the grain layer in the tin container.
# (§8) Immediately after dosing, the container was closed with the lid tightly and sealed along the rim with adhesive tape. At the end of 72 hour, the lid was removed to aerate the commodity and the test insect bags were retrieved and the contents transferred to 300 ml capacity glass bottles.
# (§9) Insect survivors in the samples were recorded at weekly intervals for 8 weeks. Mortality in fumigated batches was calculated based on emergence/survivors in controls.
# [10] = system: R. dominica mixed-age cultures; conditions: 72 hours at 26±2° C., 19.5 liter tin container with 12 kg wheat
# Description: as §4, §5, §6, §7, §8, §9
# [11] = system: S. oryzae mixed-age cultures; conditions: 200 mg/liter, 26 ± 2° C., 19.5 liter tin container with 12 kg of wheat
# Procedure: (§10) Further fumigation tests were carried out with allyl acetate at 200 mg/litre and with three different exposure periods of 24, 48 and 72 hours in 19.5 litre tin containers filled with 12 kg of wheat. Mixed- age cultures of R. dominica, S. oryzae and T. castaneum were used as the test insects.
# (§11) Mixed-age cultures of S. oryzae and R. dominica were obtained by allowing 300 adults of the individual species to breed in about 1 kg of wheat in a 2-liter glass jar. To obtain mixed- age culture of T. castaneum about 300 adults were released into 1 kg of whole-wheat flour plus 5% dried yeast in a 2-litre glass jar. The insect culture jars were kept under the rearing temperature conditions i.e., 25±1° C. for S. oryzae and T. castaneum and 30±1° C. for R. dominica. The infested grain/flour after an incubation period of 7 weeks was used for the experiment. The cultures were weighed into 50 gm aliquots in 21 cm×14 cm size cloth bags. One set of three test insect bags comprising R. dominica, S. oryzae and T. castaneum were kept at the bottom of the container before filling the grain. […] Another set of three-test insect bags was kept on the top layer of grains. The grain-filled containers were, then, fumigated with allyl acetate for 24, 48 and 72 hours at 26±2° C. The commodity was treated with allyl acetate at the dosage of 200 mg/litre. Required quantity of allyl acetate was measured in 10 and 25 ml measuring cylinder and quickly poured on to 5 gm of absorbent cotton wool kept over the grain layer in the tin container. Immediately after dosing, the container was closed with the lid tightly and sealed along the rim with adhesive tape. At the end of the exposure period, the lid was removed to aerate the commodity and the test insect bags were retrieved and the contents transferred to 300 ml capacity glass bottles. Insect survivors in the samples were recorded at weekly intervals for 8 weeks. Mortality in fumigated batches was calculated based on emergence/survivors in controls.
# [12] = system: T. castaneum mixed-age cultures; conditions: 200 mg/liter, 26 ± 2° C., 19.5 liter tin container with 12 kg of wheat
# Procedure: as §10, §11
# [13] = with perforated tubing, test insect bag at bottom layer
# [14] = with perforated tubing, test insect bag at middle layer
# [15] = with perforated tubing, test insect bag at top layer
# [16] = without perforated tubing, test insect bag at bottom layer
# [17] = without perforated tubing, test insect bag at middle layer
# [18] = without perforated tubing, test insect bag at top layer
# [19] = test insect bag at bottom layer
# [20] = test insect bag at middle layer
smiles,measurement,setting,value
C=CCOC(C)=O [allyl acetate],LD 99 (mg/Liter),[1],5.44 (4.29; 15.6) mg/Liter
same,LD 50 (mg/Liter),[2],6.14 (5.33; 6.80) mg/Liter
same,LD 99 (mg/Liter),[2],11.42 (9.85; 14.92) mg/Liter
same,Insect Survivors,[3]; [13],0
same,Insect Survivors,[3]; [14],0
same,Insect Survivors,[3]; [15],0
same,Insect Survivors,[3]; [16],22.33
same,Insect Survivors,[3]; [17],0.33
same,Insect Survivors,[3]; [18],0
same,mortality at 200 µg/mL,"[3]; Sitophilus oryzae, with perforated tubing, bottom layer",100%
same,mortality at 200 µg/mL,"[3]; Sitophilus oryzae, with perforated tubing, middle layer",100%
same,mortality at 200 µg/mL,"[3]; Sitophilus oryzae, with perforated tubing, top layer",100%
same,mortality at 200 µg/mL,"[3]; Sitophilus oryzae, without perforated tubing, bottom layer",95.3%
same,mortality at 200 µg/mL,"[3]; Sitophilus oryzae, without perforated tubing, middle layer",99.9%
same,mortality at 200 µg/mL,"[3]; Sitophilus oryzae, without perforated tubing, top layer",100%
same,dosage for 100% kill of all stages,"[3]; Sitophilus oryzae, all stages, preferred exposure period 72 hours",200 mg per litre of space
same,Insect Survivors,[4]; [13],0
same,Insect Survivors,[4]; [14],0
same,Insect Survivors,[4]; [15],0
same,Insect Survivors,[4]; [16],0.67
same,Insect Survivors,[4]; [17],0
same,Insect Survivors,[4]; [18],0
same,mortality at 200 µg/mL,"[4]; Rhyzopertha dominica, with perforated tubing, bottom layer",100%
same,mortality at 200 µg/mL,"[4]; Rhyzopertha dominica, with perforated tubing, middle layer",100%
same,mortality at 200 µg/mL,"[4]; Rhyzopertha dominica, with perforated tubing, top layer",100%
same,mortality at 200 µg/mL,"[4]; Rhyzopertha dominica, without perforated tubing, bottom layer",99.6%
same,mortality at 200 µg/mL,"[4]; Rhyzopertha dominica, without perforated tubing, middle layer",100%
same,mortality at 200 µg/mL,"[4]; Rhyzopertha dominica, without perforated tubing, top layer",100%
same,dosage for 100% kill of all stages,"[4]; Rhyzopertha dominica, all stages, preferred exposure period 72 hours",200 mg per litre of space
same,mortality at 200 µg/mL,[5]; bottom layer,0%
same,mortality at 200 µg/mL,[5]; middle layer,100%
same,mortality at 200 µg/mL,[5]; top layer,99.4%
same,Insect Survivors,[5]; [19],39.00
same,Insect Survivors,[5]; [20],0
same,Insect Survivors,[5]; test insect bag at top layer,0.33
same,Insect Survivors,[6]; [19],0
same,Insect Survivors,[6]; [20],0
same,Insect Survivors,[6]; test insect bag at top layer,0
same,mortality at 200 µg/mL,"[6]; Tribolium castaneum, bottom layer",100%
same,mortality at 200 µg/mL,"[6]; Tribolium castaneum, middle layer",100%
same,mortality at 200 µg/mL,"[6]; Tribolium castaneum, top layer",100%
same,dosage for 100% kill of all stages,"[6]; Tribolium castaneum, all stages, preferred exposure period 72 hours",200 mg per litre of space
same,LC 50 rat inhalation,[7],LC 50 rat inhalation 1000 ppm/1 hr
same,Mammalian Toxicity (irritation),"[8]; eyes, respiratory system and skin","Irritating to eyes, respiratory"
same,Mammalian Toxicity,"[8]; routes of toxicity: inhalation, contact and ingestion","Toxic by inhalation,"
same,% mortality based on survivors in controls,[9]; 100 mg/liter,(98.9) %
same,No. of survivors from 50 g lots of mixed-age cultures following treatment,[9]; 100 mg/liter,11.5
same,% mortality based on survivors in controls,[9]; 150 mg/liter,(99.9) %
same,No. of survivors from 50 g lots of mixed-age cultures following treatment,[9]; 150 mg/liter,1
same,% mortality based on survivors in controls,[9]; 200 mg/liter,(100) %
same,No. of survivors from 50 g lots of mixed-age cultures following treatment,[9]; 200 mg/liter,0
same,% mortality based on survivors in controls,[9]; 400 mg/liter,(100) %
same,No. of survivors from 50 g lots of mixed-age cultures following treatment,[9]; 400 mg/liter,0
same,% mortality based on survivors in controls,[9]; 600 mg/liter,(100) %
same,No. of survivors from 50 g lots of mixed-age cultures following treatment,[9]; 600 mg/liter,0
same,% mortality based on survivors in controls,[9]; 800 mg/liter,(100) %
same,No. of survivors from 50 g lots of mixed-age cultures following treatment,[9]; 800 mg/liter,0
same,% mortality based on survivors in controls,[10]; 100 mg/liter,(100) %
same,No. of survivors from 50 g lots of mixed-age cultures following treatment,[10]; 100 mg/liter,0
same,% mortality based on survivors in controls,[10]; 150 mg/liter,(100) %
same,No. of survivors from 50 g lots of mixed-age cultures following treatment,[10]; 150 mg/liter,0
same,% mortality based on survivors in controls,[10]; 200 mg/liter,(100) %
same,No. of survivors from 50 g lots of mixed-age cultures following treatment,[10]; 200 mg/liter,0
same,% mortality based on survivors in controls,[10]; 400 mg/liter,(100) %
same,No. of survivors from 50 g lots of mixed-age cultures following treatment,[10]; 400 mg/liter,0
same,% mortality based on survivors in controls,[10]; 600 mg/liter,(100) %
same,No. of survivors from 50 g lots of mixed-age cultures following treatment,[10]; 600 mg/liter,0
same,% mortality based on survivors in controls,[10]; 800 mg/liter,(100) %
same,No. of survivors from 50 g lots of mixed-age cultures following treatment,[10]; 800 mg/liter,0
same,% mortality based on survivors in controls,[11]; exposure period 24 hour,(99.9) %
same,No. of survivors from 50 g lots of mixed-age cultures following treatment,[11]; exposure period 24 hour,0.33
same,% mortality based on survivors in controls,[11]; exposure period 48 hour,(99.9) %
same,No. of survivors from 50 g lots of mixed-age cultures following treatment,[11]; exposure period 48 hour,0.33
same,% mortality based on survivors in controls,[11]; exposure period 72 hour,(100) %
same,No. of survivors from 50 g lots of mixed-age cultures following treatment,[11]; exposure period 72 hour,0
same,% mortality based on survivors in controls,[12]; exposure period 24 hour,(100) %
same,No. of survivors from 50 g lots of mixed-age cultures following treatment,[12]; exposure period 24 hour,0
same,% mortality based on survivors in controls,[12]; exposure period 48 hour,(100) %
same,No. of survivors from 50 g lots of mixed-age cultures following treatment,[12]; exposure period 48 hour,0
same,% mortality based on survivors in controls,[12]; exposure period 72 hour,(100) %
same,No. of survivors from 50 g lots of mixed-age cultures following treatment,[12]; exposure period 72 hour,0
